Experimental data as given in US11649222B2, “Compounds” (UNIVERSITETET I OSLO, priority 2016, dated 2023).
Structures can show the parent of a compound that is named as a salt. Where two headings read alike, the source gives them in different places.

Legend:
P. mirabilis (NDM-1) = experiment: Microbroth dilution MIC of meropenem ± 25 mg/L inhibitor; assay type: cell-based
Procedure: (§1) • Plate bacterial strain(s) on appropriate media: • Gram-negative bacteria with ESBLs or carbapenemases: green agar plates with 100 mg/L ampicillin • Gram-negative bacteria without β-lactamases: green agar plates • Gram-positive bacteria (Staphylococci and Enterococci): blood agar plates • Incubate o.n. at 37° C. Day 2: Prepare the Bacterial Inoculum: • Prepare a 0.5 McFarland suspension of bacteria in 0.85% NaCl. (Should be used within 15 min of preparation). • Dilute the 0.5 McFarland suspension 1:100 into MH broth. Check the inoculum by diluting the prepared bacterial suspension 1:100 (10 μl bacterial suspension+990 μl 0.85% NaCl). Plate 10 μl of the dilution on MH agar plates (×2). Incubate o.n. at 37° C., count the colonies and calculate the final CFU/ml inoculum in the plate by multiplying the average number of colonies with 10000 and divide by 2. The final inoculum should be between 3-7×10^5 CFU/ml. • Add 50 μl of the prepared bacterial suspension to each well in the microtiter plate except negative growth control. Preparation of Compounds/Antibiotics • Calculate the desired concentration-range and volume of the compounds/antibiotics in the assay. […] Dilute the stock solution in MH broth. Make subsequent 2-fold dilutions in MH broth of the desired concentrations if a concentration range is to be tested (remember the extra dilution factor in the assay plate). Always include extra volume for pipetting. Take into consideration stock solutions that are made in buffers that have an effect on bacterial growth (e.g. DMSO).

P. stuartii (NDM-1) = experiment: as above; assay type: cell-based
Procedure: as §1

P. stuartii (NDM) = experiment: as above; assay type: cell-based
Procedure: as §1

[1] = system: M. morganii (OXA48+ NDM-1); experiment: as above; assay type: cell-based
Procedure: as §1

E. cloacae (VIM) = experiment: as above; assay type: cell-based
Procedure: as §1

K. pneumoniae (NDM-7) = experiment: as above; assay type: cell-based
Procedure: as §1

C. freundii (NDM) = experiment: as above; assay type: cell-based
Procedure: as §1

C. freundii (NDM-1) = experiment: as above; assay type: cell-based
Procedure: as §1

K. pneumoniae (VIM) = experiment: as above; assay type: cell-based
Procedure: as §1

K. pneumoniae (NDM) = experiment: as above; assay type: cell-based; settings: K. pneumoniae NDM (several strains)
Procedure: as §1

E. coli (VIM-1) = experiment: as above; assay type: cell-based
Procedure: as §1

[2] = system: K. pneumoniae K66-45 (NDM-1); experiment: Microbroth dilution MIC of carbapenem with/without inhibitor; assay type: cell-based
Procedure: as §1, with “Day 2: Prepare the Bacterial Inoculum: • Prepare a 0.5 McFarland suspension of bacteria in 0.85% NaCl.” left out, “Check the inoculum by diluting the prepared bacterial suspension 1:100 (10 μl bacterial suspension+990 μl 0.85% NaCl).” left out

human hepG2 cells = experiment: In vitro toxicity in human hepG2 cells (AlamarBlue viability); assay type: cell-based
Procedure: For viability assays, cells were seeded in white 96-well Nunclon plates at a density of 20,000 cells/well and left overnight to adhere before experiments were conducted. Zn chelators dissolved in DMSO were added to white 96-well plates containing 20000 HepG2 cells/well at concentrations ranging from 1 to 1×10^−6 mM (max DMSO concentration never exceeded 1%) and incubated for 24 hours at 37° C. After 24 hours, AlamarBlue® cell viability reagent (Thermo Fisher, Carlsbad, USA) was added (10% final concentration) and incubated for 4 hours at 37° C.

K. pneumoniae K66-45 = assay type: cell-based; settings: inhibitor 25 mg/L; MEM 1 mg/L
Procedure: After plating and grown overnight at 37° C., only single colonies, ignoring any touching the edges of the plate, were counted.
10^9 CFU K66-45 (Mueller-Hinton broth, no selection) was plated and grown overnight, 37° C. Only single colonies, ignoring any touching the edges of the plate, were counted.

[3] = Solution stability on storage, measured indirectly by MIC; assay type: physicochemical; settings: solution stored at 2-8° C.; MIC at 25 mg/L inhibitor
From the text: P. aeruginosa harboring VIM-2 and K. pneumonia bearing NDM-1 was used as two indicator strains.

[4] = In vivo toxicity in healthy mice; parameters: species or system Balb/c mice; settings: ± SEM
Procedure: Female Balb/c mice (4 weeks old, approximately 20 g, Charles River, L'Arbresle, France) acclimatized 4 days in the animal facility before initiation of experiments. […] Individual weights were followed four days a week. Relative weight was calculated as the ratio between the weight of the day and the weight of the first day. The protocol for experiments in mice was approved by the University of Lyon Animal Ethics Committee. Toxicity experiments were performed by Antineo (www.antineo.fr).

VIM-2 = VIM-2 (Escherichia coli, UniProt Q5U7L7); assay type: biochemical; settings: purified VIM-2, PD-10 column
Procedure: The eluent used was Chelex-treated HEPES 50 mM buffer, pH 7.5. […] In all experiments, 16 aliquots of 250 μL were taken from the PD-10 column runsout and enzyme activity was analysed. Enzyme activity was measured by adding Nitrocefin as a reporter substrate (final concentration of 50 μM).
To investigate if more extreme time-dependent and concentration-dependent conditions could restore enzyme activity, aliquots having final concentrations of 30 nM column-treated enzyme and 1000 μM Zn^2+ on ice and at room temperature over prolonged time.

neurons = settings: Canzoniero et al.; cited from earlier work
[5] = system: resistant gram-negative MBL-based bacteria; experiment: MICx: adjuvant concentration giving carbapenem MIC ≤ 2 mg/L; assay type: cell-based; settings: lowest concentration of compound X that results in a MIC value of ≤ 2 mg/L for carbapenem antibiotics
Procedure: as §1, with “Day 2: Prepare the Bacterial Inoculum: • Prepare a 0.5 McFarland suspension of bacteria in 0.85% NaCl.” left out, “Check the inoculum by diluting the prepared bacterial suspension 1:100 (10 μl bacterial suspension+990 μl 0.85% NaCl).” left out

[6] = system: P. aeruginosa K34-7 (VIM-2); experiment: Microbroth dilution MIC of carbapenem with/without inhibitor; assay type: cell-based; settings: inhibitor 63 mg/L
Procedure: as §1, with “Day 2: Prepare the Bacterial Inoculum: • Prepare a 0.5 McFarland suspension of bacteria in 0.85% NaCl.” left out, “Check the inoculum by diluting the prepared bacterial suspension 1:100 (10 μl bacterial suspension+990 μl 0.85% NaCl).” left out

[7] = system: K. pneumoniae 50732159 (No MBL); experiment: Microbroth dilution MIC of meropenem with/without inhibitor; assay type: cell-based; settings: inhibitor 63 mg/L
Procedure: as §1, with “Day 2: Prepare the Bacterial Inoculum: • Prepare a 0.5 McFarland suspension of bacteria in 0.85% NaCl.” left out, “Check the inoculum by diluting the prepared bacterial suspension 1:100 (10 μl bacterial suspension+990 μl 0.85% NaCl).” left out

[8] = system: P. aeruginosa 50808021 (No MBL); experiment: as above; assay type: cell-based; settings: inhibitor 63 mg/L
Procedure: as §1, with “Day 2: Prepare the Bacterial Inoculum: • Prepare a 0.5 McFarland suspension of bacteria in 0.85% NaCl.” left out, “Check the inoculum by diluting the prepared bacterial suspension 1:100 (10 μl bacterial suspension+990 μl 0.85% NaCl).” left out

[9] = system: P. aeruginosa 50692172 (NDM-1); experiment: as above; assay type: cell-based; settings: inhibitor 63 mg/L
Procedure: as §1, with “Day 2: Prepare the Bacterial Inoculum: • Prepare a 0.5 McFarland suspension of bacteria in 0.85% NaCl.” left out, “Check the inoculum by diluting the prepared bacterial suspension 1:100 (10 μl bacterial suspension+990 μl 0.85% NaCl).” left out

Question: For `C[C@@H](N)C(=O)N[C@H](C)C(=O)NCCc1ccc(NC(=O)c2ccc(CN(Cc3ccccn3)Cc3ccccn3)nc2)cc1` [Example 195, N-(4-(2-((R)-2-((R)-2-aminopropanamido)propanamido)ethyl)phenyl)-6-((bis(pyridin-2-ylmethyl)amino)methyl)nicotinamide hydrochloride], which “MIC meropenem + 25 mg/L Example 195” value (P. mirabilis (NDM-1)) is on record?
Answer: 0.125 mg/L

Question: And the “MIC meropenem + 25 mg/L Example 195” value (P. stuartii (NDM-1))?
Answer: 0.125 mg/L

Question: And the “MIC meropenem + 25 mg/L Example 195” value (P. stuartii (NDM))?
Answer: 0.25 mg/L

Question: What about the “MIC meropenem + 25 mg/L Example 195” value [1] of the same molecule?
Answer: 1 mg/L

Question: And the “MIC meropenem + 25 mg/L Example 195” value (E. cloacae (VIM))?
Answer: <0.03 mg/L

Question: What about the “MIC meropenem + 25 mg/L Example 195” value (K. pneumoniae (NDM-7)) of the same molecule?
Answer: <0.03 mg/L

Question: And the “MIC meropenem + 25 mg/L Example 195” value (C. freundii (NDM))?
Answer: 0.06 mg/L

Question: And the “MIC meropenem + 25 mg/L Example 195” value (C. freundii (NDM-1))?
Answer: 0.125 mg/L

Question: What about the “MIC meropenem + 25 mg/L Example 195” value (K. pneumoniae (VIM)) of the same molecule?
Answer: 0.125 mg/L

Question: And the “MIC meropenem + 25 mg/L Example 195” value (K. pneumoniae (NDM))?
Answer: 0.06 mg/L

Question: And the “MIC meropenem + 25 mg/L Example 195” value (E. coli (VIM-1))?
Answer: <0.03 mg/L

Question: And the MIC ([2]; Klebsiella pneumoniae, read-out: MIC of MEM in the presence of inhibitor)?
Answer: 0.125 µg/mL

Question: What about the IC50 (human hepG2 cells; Homo sapiens, HepG2, 24 h) of the same molecule?
Answer: > 1000 µM

Question: What about the “RF - no of colonies” value (K. pneumoniae K66-45) of the same molecule?
Answer: 163 colonies

Question: And the “storage time after which the activity was absent” value [3]?
Answer: 8 months

Question: And the “storage time at which a loss of activity was observed” value [3]?
Answer: 5 months

Question: And the “Relative weight of mice” value ([4]; Day 1, treatment 4 mg/kg intraperitoneally)?
Answer: 100 ± 0%

Question: And the “Relative weight of mice” value ([4]; Day 8, treatment 8 mg/kg)?
Answer: 98 ± 5%

Question: What about the “Relative weight of mice” value ([4]; Day 16, treatment 16 mg/kg) of the same molecule?
Answer: 103 ± 3%

Question: And the “Relative weight of mice” value ([4]; Day 22, treatment 32 mg/kg)?
Answer: 103 ± 3%

Question: And the “Relative weight of mice” value ([4]; Day 29, treatment 64 mg/kg)?
Answer: 106 ± 6%

Question: What about the “Relative weight of mice” value ([4]; Day 36, treatment 120 mg/kg) of the same molecule?
Answer: 110 ± 8%

Question: And the “Relative weight of mice” value ([4]; Day 43, no injection, reporting)?
Answer: 110 ± 8%

Question: Which “irreversibility of VIM-2 inhibition” value (VIM-2) does the source give for `c1ccc(CN(CCN(Cc2ccccn2)Cc2ccccn2)Cc2ccccn2)nc1` [TPEN, N,N,N′,N′-tetrakis(2-pyridylmethyl) ethylenediamine, reference compound] here?
Answer: irreversibly inhibited

Question: What about the EC50 (neurons) of the same molecule?
Answer: ~5 µM

Question: And the MICx [5]?
Answer: 15 µM

Question: And the “Meropenem activity in presence of inhibitor” value [6]?
Answer: 1 mg/L

Question: And the “Meropenem activity in presence of inhibitor” value ([2]; inhibitor 63 mg/L, K. pneumoniae K66-45 NDM-1)?
Answer: ≤0.5 mg/L

Question: What about the IC50 (human hepG2 cells; human hepG2 cells, 24 hours, AlamarBlue, 8 replicates, read-out: IC50) of the same molecule?
Answer: 7.1 µM

Question: What about the IC50 (human hepG2 cells; human hepG2 cells, read-out: IC50h) of the same molecule?
Answer: 7 µM

Question: What about the “Meropenem activity in presence of inhibitor” value [7] of the same molecule?
Answer: ≤0.064 mg/L

Question: What about the “Meropenem activity in presence of inhibitor” value [8] of the same molecule?
Answer: 64 mg/L

Question: And the “Meropenem activity in presence of inhibitor” value [9]?
Answer: ≤0.5 mg/L
